According to patent US20140120165A1, “CORTICOSTEROID PARTICLES AND METHOD OF PRODUCTION” (priority 2010, published 2014):

Details: rat
Procedure: Seven budesonide formulations were assessed for the ability to cross the lung by perfusion on an isolated lung perfusion system. LC-MS/MS was utilized to measure budesonide concentration in perfusate samples collected for up to approximately 123 minutes after intratracheal (IT) administration of the representative formulations to male Sprague-Dawley rats. The mass of budesonide remaining in the lung was also measured at the terminus of the procedure.
After release from quarantine, the study animals were euthanized with an IP injection of a barbiturate (minimum 150 mg/kg pentobarbital). The trachea, pulmonary artery and left ventricle were cannulated and the heart/lung bloc was removed from the thoracic cavity. The heart/lung bloc was placed in an artificial thoracic cavity (Hugo Sachs Electronik-Harvard). The budesonide suspension test formulations were administered by intratracheal installation at a volume of 40-100 μL. Following test formulation delivery, fractionated single pass perfusate samples were collected over a 2 hour period. The concentration of budesonide in the perfusate and lung tissue was determined by Liquid Chromatography-Mass Spectrometry (LC-MS/MS).
The test formulations contained in single unit dose vials (1.5 ml or 2 ml) were inverted several times before being transferred to a secondary container. Bulk formulations were diluted in saline and were gently swirled, and then aliquots of 40-100 μl were drawn up in a syringe and installed IT into the isolated perfused lung model directly through a cannula placed at the top of the trachea.
The Study animals were euthanized with an overdose of pentobarbital. During necropsy, the trachea and lungs were excised from the rat and placed on the IPL system cannula. The lungs were ventilated with room air at a rate of 60 breaths per minute by negative pressure ventilation. Chamber pressures were adjusted to reach target goals of a tidal volume of 2.5 ml and a peak expiratory flow of 12 ml/sec.
Single pass perfusate samples were collected over a 60-120 minute period. Perfusate samples were fractionated into 17 samples collected at approximately (min): 0.67; 1.3; 2.7; 4; 6; 8; 10; 12.5; 15; 22; 29; 36; 43; 63; 83; 103; and 123.
Perfusate and lung tissue samples were stored at −80° C. prior to subsequent analysis by LC-MS/MS. During operation of the isolated perfused lung (IPL) system pressure and flow recordings were collected using EMKA (version 2.5) software. […] Data was reduced to 5 minute data points for the purposes of statistical comparisons. Mean and standard error were performed on the perfusate and lung tissue concentrations using Microsoft Excel software. Pharmacokinetic properties were evaluated by WinNonlin software (Version 5.0.1, Pharsight Corporation, Sunnyvale, Calif. 94086).

Cmax [ng/mL]	Tmax [min]	Compound
104.5	1.3	budesonide [Group-1, reference compound]
	1.3	budesonide [Group-2, reference compound]
	1.3	budesonide [Group-3, reference compound]
146.4		budesonide [Group-4]
	1.3	budesonide [Group-5, reference compound]

Details: in water at 20° C.; cited from earlier work

Compound	water solubility
ClCCl [dichloromethane]	13 grams/liter
CCOCC [diethyl ether]	69 grams/liter
CCOC(C)=O [ethyl acetate]	83 grams/liter
CC(=O)OC(C)C [isopropyl acetate]	43 grams/liter
CC(=O)CC(C)C [methyl isobutyl ketone]	19 grams/liter.
